Key:
[1] = test system: purified guinea pig anti-a,DNP-Lys7-10 antibody; conditions: as measured by binding of DNP-OH or DNP-EACA; fluorescence quenching
[2] = test system: purified anti-8,e,DNP-Lys8 antibody; format: binding, guinea pig; conditions: cross-reaction of anti-8,ε,DNP-Lys8 antibody with α,DNP-oligolysines

| SMILES | contribution of the haptenic group to the total binding energy of a,DNP-Lys9 [1] | contribution to the binding energy of α,DNP-oligolysines [2] |
| --- | --- | --- |
| O=C(O)CCCCCNc1ccc([N+](=O)[O-])cc1[N+](=O)[O-] [DNP-EACA] | about 70% |  |
| O=[N+]([O-])c1ccc(O)c([N+](=O)[O-])c1 [DNP-OH, 2,4,dinitrophenol] | about 70% | 93% |

Source: publication PMC2138933 (The Journal of Experimental Medicine, 1971)
